Source: US10894775B2, “Piperidine derivatives as liver X receptor beta agonists, compositions, and their use” (Merck Sharp & Dohme Corp., priority 2016, dated 2021)
Where two headings read alike, the source gives them in different places.

Experiments:
[1] = biological target: T1, glutathione-S-transferase (GST) tagged LXRbeta LBD (ligand binding domain) (Homo sapiens, UniProt P55055); test: LanthaScreen TR-FRET Liver X Receptor Coactivator Assay, LXR beta; assay type: biochemical; details: for EC50: potency (Inflection Point) of compound-induced co-activator recruitment, TR-FRET; for Emax: read-out: LXR beta actiivty at max dose (%)
T1 construct: purchased Invitrogen pv4658.pps
T1 sequence (P55055 222-460 limits assumed): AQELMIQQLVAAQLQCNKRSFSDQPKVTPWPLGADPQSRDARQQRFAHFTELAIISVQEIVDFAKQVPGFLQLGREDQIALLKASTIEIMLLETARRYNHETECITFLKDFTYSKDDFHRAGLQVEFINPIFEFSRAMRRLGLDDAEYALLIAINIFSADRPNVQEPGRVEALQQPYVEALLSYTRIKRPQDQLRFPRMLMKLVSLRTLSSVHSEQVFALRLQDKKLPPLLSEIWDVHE
Description: (§1) While running the LanthaScreen™ TR-FRET Liver X Receptor Coactivator Assay, LXR alpha-LBD or LXR beta-LBD was added to ligand test compounds followed by addition of a mixture of a fluorescein-labelled coactivator peptide and terbium-conjugated anti-GST antibody. After an incubation period at room temperature, TR-FRET (time-resolved fluorescence resonance energy transfer) was measured using a filter-based instrument capable of TR-FRET, e.g. PerkinElmer Envision.

[2] = biological target: T2, glutathione-S-transferase (GST) tagged LXRalpha LBD (ligand binding domain) (Homo sapiens, UniProt Q13133); test: LanthaScreen TR-FRET Liver X Receptor Coactivator Assay, LXR alpha; assay type: biochemical; details: for Emax: read-out: LXR alpha actiivty at max dose (%); for EC50 / LXR alpha IP (nM): potency (Inflection Point) of compound-induced co-activator recruitment, TR-FRET; for EC50: read-out: LXR alpha IP
T2 construct: purchased Invitrogen pv4655
T2 sequence (Q13133 209-447 limits assumed): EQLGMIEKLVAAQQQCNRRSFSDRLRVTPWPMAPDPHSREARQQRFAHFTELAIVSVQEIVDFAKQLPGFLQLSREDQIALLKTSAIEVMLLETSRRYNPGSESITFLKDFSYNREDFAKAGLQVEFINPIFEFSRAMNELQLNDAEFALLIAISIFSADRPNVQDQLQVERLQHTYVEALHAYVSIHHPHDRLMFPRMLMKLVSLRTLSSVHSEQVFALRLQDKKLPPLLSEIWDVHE
Description: as §1

[3] = efficacy (Emax) in relation to reference dual agonist T0901317

| Emax [2, 3] [%] | EC50 [2] [nM] | LXR beta actiivty at max dose (%) [1, 3] [%] | EC50 ([1]; read-out: LXR beta IP) [nM] | LXR alpha actiivty at max dose (%) [2, 3] [%] | LXR alpha IP (nM) [2] | Emax [1, 3] [%] | SMILES | EC50 ([1]; LXR beta IP (nM)) [nM] | Emax [1] [%] | Emax [2] [%] |
| --- | --- | --- | --- | --- | --- | --- | --- | --- | --- | --- |
| 24 | 946 |  | 27 |  |  | 118 | COc1cccc([C@@](O)(C(=O)N2CCC([C@H]3C[C@H]3CSc3ccc(C(=O)N(C)C)c(Cl)c3)CC2)C(F)(F)F)c1 (single isomer, unassigned) [Example 23-1, 2-chloro-N,N-dimethyl-4-(((1R,2R or 1S,2S)-2-(1-((R or S)-3,3,3-trifluoro-2-hydroxy-2-(3-methoxyphenyl)propanoyl)piperidin-4-yl)cyclopropyl)methylthio)benzamide] |  |  |  |
| 35 | 421 |  | 4 |  |  | 50 | CN(C)C(=O)c1ccc(NC[C@H]2C[C@H]2C2CCN(C(=O)[C@](O)(c3ccccc3)C(F)(F)F)CC2)cc1Cl (single isomer, unassigned) [Example 8-3, 2-chloro-N,N-dimethyl-4-(((1S,2S or 1R,2R)-2-(1-((R or S)-3,3,3-trifluoro-2-hydroxy-2-phenylpropanoyl)piperidin-4-yl)cyclopropyl)methylamino)benzamide] |  |  |  |
| 39 | 321 |  | 6 |  |  | 57 | CN(C)C(=O)c1ccc(NCCC2CC3(CCN(C(=O)C(O)(c4ccccc4)C(F)(F)F)CC3)C2)cc1Cl (single isomer, unassigned) [Example 13-1, 2-chloro-N,N-dimethyl-4-(2-(7-((R or S)-3,3,3-trifluoro-2-hydroxy-2-phenylpropanoyl)-7-azaspiro[3.5]nonan-2-yl)ethylamino)benzamide] |  |  |  |
| 19 | 3160 |  | 14 |  |  | 56 | CNC(=O)c1ccc(NCCCCC2CCN(C(=O)C(O)(c3cccc(OC4CC4)c3)C(F)(F)F)CC2)cc1Cl (single isomer, unassigned) [Example 1-7, (S or R)-2-chloro-4-(4-(1-(2-(3-cyclopropoxyphenyl)-3,3,3-trifluoro-2-hydroxypropanoyl)piperidin-4-yl)butylamino)-N-methylbenzamide] |  |  |  |
| 0 |  |  | 12 |  | No IP | 51 | COc1cccc([C@@](O)(C(=O)N2CCC3(CC2)C[C@H]3CCCc2ccc(C(=O)N(C)C)c(Cl)c2)C(F)(F)F)c1 (single isomer, unassigned) [Example 17-1, 2-chloro-N,N-dimethyl-4-(3-((R or S)-6-((R or S)-3,3,3-trifluoro-2-hydroxy-2-(3-methoxyphenyl)propanoyl)-6-azaspiro[2.5]octan-1-yl)propyl)benzamide] |  |  |  |
| 43 | 266 |  | 15 |  |  | 59 | NC(=O)c1ccc(NCCCCC2CCN(C(=O)C(O)(c3ccccc3)C(F)(F)F)CC2)cc1Cl (single isomer, unassigned) [Example 1-2, (R or S)-2-chloro-4-(4-(1-(3,3,3-trifluoro-2-hydroxy-2-phenylpropanoyl)piperidin-4-yl)butylamino)benzamide] |  |  |  |
| 24 | 1400 |  | 14 |  |  | 49 | CN(C)C(=O)c1ccc(NCCC[C@H]2CC23CCN(C(=O)[C@](O)(c2ccccc2)C(F)(F)F)CC3)nc1Cl (single isomer, unassigned) [Example 6-3, 2-chloro-N,N-dimethyl-6-(3-((S or R)-6-((R or S)-3,3,3-trifluoro-2-hydroxy-2-phenylpropanoyl)-6-azaspiro[2.5]octan-1-yl)propylamino)nicotin-amide] |  |  |  |
| 9 |  |  | 68 |  | No IP | 91 | CN(C)C(=O)c1ccc(NCCC[C@H]2CC23CCN(C(=O)[C@@](O)(c2ccccc2)C(F)(F)C(F)(F)F)CC3)cc1Cl (single isomer, unassigned) [Example 6-7, 2-chloro-N,N-dimethyl-4-(3-((S or R)-6-((S or R)-3,3,4,4,4-pentafluoro-2-hydroxy-2-phenylbutanoyl)-6-azaspiro[2.5]octan-1-yl)propylamino)benzamide] |  |  |  |

Second part, the molecule before the results:

| SMILES | Emax [2, 3] [%] | EC50 [2] [nM] | LXR beta actiivty at max dose (%) [1, 3] [%] | EC50 ([1]; read-out: LXR beta IP) [nM] | LXR alpha actiivty at max dose (%) [2, 3] [%] | LXR alpha IP (nM) [2] | Emax [1, 3] [%] | EC50 ([1]; LXR beta IP (nM)) [nM] | Emax [1] [%] | Emax [2] [%] |
| --- | --- | --- | --- | --- | --- | --- | --- | --- | --- | --- |
| COc1cccc(C(O)(C(=O)N2CCC3(CCC(Cc4ccc(C(=O)N(C)C)c(Cl)c4)CC3)CC2)C(F)(F)F)c1 (single isomer, unassigned) [Example 18-1, 2-chloro-N,N-dimethyl-4-((3-((R or S)-3,3,3-trifluoro-2-hydroxy-2-(3-methoxyphenyl)propanoyl)-3-azaspiro[5.5]undecan-9-yl)methyl)benzamide] | 21 | 739 |  |  |  |  |  | 72 | 65 |  |
| CN(C)C(=O)c1ccc(CCCCCC2CCN(C(=O)C(O)(c3ccccc3)C(F)(F)F)CC2)cc1Cl (single isomer, unassigned) [Example 15-9, (S or R)-2-chloro-N,N-dimethyl-4-(5-(1-(3,3,3-trifluoro-2-hydroxy-2-phenylpropanoyl)piperidin-4-yl)pentyl)benzamide] |  |  | 84 | 240 | 4 | No IP |  |  |  |  |
| CNC(=O)c1ccc(NCCCCC2CCN(C(=O)C(O)(c3cccc(Cl)c3)C(F)(F)F)CC2)cc1Cl (single isomer, unassigned) [Example 1-5, (R or S)-2-chloro-4-(4-(1-(2-(3-chlorophenyl)-3,3,3-trifluoro-2-hydroxypropanoyl)piperidin-4-yl)butylamino)-N-methylbenzamide] | 32 | 239 |  | 8 |  |  | 72 |  |  |  |
| CCc1cccc(C(O)(C(=O)N2CCC(CCCCNc3ccc(C(=O)NC)c(Cl)c3)CC2)C(F)(F)F)c1 (single isomer, unassigned) [Example 1-8, (S or R)-2-chloro-4-(4-(1-(2-(3-ethylphenyl)-3,3,3-trifluoro-2-hydroxypropanoyl)piperidin-4-yl)butylamino)-N-methylbenzamide] | 12 |  |  | 4 |  | No IP | 52 |  |  |  |
| CN(C)C(=O)c1ccc(S(=O)(=O)C2CCC3(CC2)CCN(C(=O)C(O)(c2cc(Cl)cc(Cl)c2)C(F)(F)F)CC3)cc1Cl (single isomer, unassigned) [Example 21-1, 2-chloro-4-(3-((R or S)-2-(3,5-dichlorophenyl)-3,3,3-trifluoro-2-hydroxypropanoyl)-3-azaspiro[5.5]undecan-9-ylsulfonyl)-N,N-dimethylbenzamide] |  |  |  |  |  | No IP |  | 1460 | 50 | 0 |
| CN(C(=O)c1ccc(NCCC[C@@H]2CC23CCN(C(=O)[C@](O)(c2ccccc2)C(F)(F)F)CC3)cc1Cl)C1CC1 (single isomer, unassigned) [Example 6-6, 2-chloro-N-cyclopropyl-N-methyl-4-(3-((R or S)-6-((R or S)-3,3,3-trifluoro-2-hydroxy-2-phenylpropanoyl)-6-azaspiro[2.5]octan-1-yl)propylamino)benzamide] | 0 |  |  | 49 |  | No IP | 43 |  |  |  |
| CN(Cc1ccc(C(=O)N(C)C)c(Cl)c1)CC1CC12CCN(C(=O)C(C)(C)c1ccccc1)CC2 (centres unmarked) [Example 14-1, 2-chloro-N,N-dimethyl-4-((methyl((6-(2-methyl-2-phenylpropanoyl)-6-azaspiro[2.5]octan-1-yl)methyl)amino)methyl)benzamide] | 33 | 15500 |  | 1260 |  |  | 99 |  |  |  |
| CN(C)C(=O)c1ccc(NCCC[C@@H]2CC23CCN(C(=O)[C@](O)(c2ccccc2)C(F)(F)F)CC3)cc1Cl (single isomer, unassigned) [Example 6-1, 2-chloro-N,N-dimethyl-4-(3-((R or S)-6-((R or S)-3,3,3-trifluoro-2-hydroxy-2-phenylpropanoyl)-6-azaspiro[2.5]octan-1-yl)propylamino)benzamide] | 21 | 828 |  | 15 |  |  | 30 |  |  |  |
| CN(C)C(=O)c1ccc(CCCCCC2CCN(C(=O)C(O)(c3ccccc3)C(F)(F)F)CC2)cc1Cl (single isomer, unassigned) [Example 15-8, (R or S)-2-chloro-N,N-dimethyl-4-(5-(1-(3,3,3-trifluoro-2-hydroxy-2-phenylpropanoyl)piperidin-4-yl)pentyl)benzamide] |  | 236 |  | 9 | 29 |  | 79 |  |  |  |
